Literature values as cited in patent US20050118235A1, “Dietary non-essential amino acid tyrosine regulates the body weight of animals through regulating the animal appetite or food intake” (priority 2003, published 2005).

System: activity anorexia in mice
Details: tyrosine injection, activity anorexia in mice (Avraham et al. 2001)

Q: With N[C@@H](Cc1ccc(O)cc1)C(=O)O [Tyrosine] as the molecule, how does the “effect on appetite, cognition and exercise tolerance” value read?
A: The value was “improves appetite, cognition, and exercise tolerance”.
